Values quoted from earlier work, collected in publication PMC3792642 (Acta Crystallographica Section D: Biological Crystallography, 2013).

Legend:
[1] = tested on: MtbVKOR; conditions: ref Dutton et al., 2010; cited from earlier work
[2] = tested on: Mtb; conditions: VKOR-dependent manner; ref Dutton et al., 2010; cited from earlier work

CC(=O)CC(c1ccccc1)c1c(O)c2ccccc2oc1=O (centres unmarked) [warfarin]
Inhibition of MtbVKOR [1]: inhibit MtbVKOR | Inhibition of growth of Mtb [2]: inhibit growth of Mtb
